Results reported in patent US7494993B2, “Amide derivatives of 7-amino-3-phenyl-dihydropyrimido[4,5-d]pyrimidinones, their manufacture and use as pharmaceutical agents” (Hoffmann-La Roche Inc., priority 2004, dated 2009).

Legend:
[1] = molecular target: T1, Lck (p56^kk, active) (Homo sapiens, UniProt P06239); experiment: SRC-Inhibitor-Assay, time-resolved fluorescence kinase assay (Lck); format: biochemical; conditions: ATP 5 μM; enzyme pre-incubated with inhibitor 15 min at 15° C.
T1 construct: purchased UBI, Upstate Biotech, Inc
T1 sequence (P06239 whole entry, species assumed): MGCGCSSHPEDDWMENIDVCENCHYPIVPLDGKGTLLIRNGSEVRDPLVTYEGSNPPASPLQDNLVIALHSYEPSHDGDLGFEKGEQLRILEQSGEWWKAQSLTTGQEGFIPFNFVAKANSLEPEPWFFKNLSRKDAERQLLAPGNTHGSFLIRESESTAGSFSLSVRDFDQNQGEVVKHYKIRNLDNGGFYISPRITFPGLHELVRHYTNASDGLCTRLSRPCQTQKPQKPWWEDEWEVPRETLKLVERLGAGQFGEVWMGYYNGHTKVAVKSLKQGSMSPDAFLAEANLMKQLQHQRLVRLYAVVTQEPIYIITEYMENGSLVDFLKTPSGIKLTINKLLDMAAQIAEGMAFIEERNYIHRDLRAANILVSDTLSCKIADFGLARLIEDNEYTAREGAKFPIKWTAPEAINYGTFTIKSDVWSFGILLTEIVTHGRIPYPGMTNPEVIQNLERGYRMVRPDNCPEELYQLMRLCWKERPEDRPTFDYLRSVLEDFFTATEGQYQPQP
Experimental: (§1) The activity of the compounds according to this invention as inhibitors for the src-family tyrosine kinases was shown by using the following assay. • SRC-Inhibitor-Assay Parameters: • Reaction mixture: • ATP 5 μM • Peptide (Ro+Ja133-Ro): 10 μM • Ja133-Ro 196 nM • Ro 9.8 μM • PT66 230 ng/ml • Assay buffer: 4 mM MgCl2 • 2 mM TCEP • 50 mM HEPES • 0.1% Tween 20 • pH 7.3 • Enzyme: 2.5 U/ml • Inhibitor: max. 25 μM • min. 0.42 nM
(§2) Material: • Eu-labelled phosphotyrosine antibody: for Lck Cisbio Mab PT66-K, • for Src EG&G Wallac PT66 Eu-W1024 (all commercially available). • Peptides: Ro: NH2-A-E-E-E-I-Y-G-E-F-E-A-K-K-K-K-CONH2, and • Ja133-Ro: Ja133-G-Aminocaprylic acid-A-E-E-E-I-Y-G-E-F-E-A-K-K-K-K-CONH2, wherein Ja133 is LightCycler-Red 640-N-hydroxy succinimide ester; • whereby both peptides were synthesized by an optimized solid phase peptide synthesis protocol (Merrifield, Fed. Proc. Fed. Amer. Soc. Exp. Biol. 21 (1962) 412) on a Zinsser SMP350 peptide synthesizer. Shortly, the peptide was assembled on 160 mg (22.8 μmol scale) of a Rink-Linker modified polystyrene solid phase by repeatedly conjugating an twenty fold excess of amino acids each protected by temporary piperidine labile Fmoc- and permanent acid labile tert-Bu-, BOC- and O-tert-Bu-groups depending on the side chain function. The substrate sequence AEEEIYGEFEAKKKK was N-terminal additionally mounted with the spacer amino acids Aminocaprylic acid and Glycin. After cleavage of the N-terminal temporary protecting group the still attached and protected peptide was labeled with a 1.5 fold amount of LightCycler-Red 640-N-hydroxy succinimide ester (purchased from Roche Diagnostics GmbH) and triethylamine. After 3 hrs. the resin was washed with Dimethylformamide and Isopropanol until the eluates of the blue resin got colourless. […] The substrate was finally isolated by a preparative reverse phase HPLC purification.
(§3) The purification yielded 12.2 mg RP-HPLC single peak pure blue material (lyophilisate). The identity was proven by MALDI mass spectroscopy [2720.0]. • Enzymes: Upstate Lck (p56^kk, active), Upstate Src (p60^c-src, partially purified) were purchased from UBI, Upstate Biotech, Inc.
(§4) Time-resolved Fluorescence Assay: Reader: Perkin Elmer, Wallac Viktor 1420-040 multilabel counter; Liquid handling system: Beckman Coulter, Biomek 2000.
(§5) ATP, Tween™ 20, 4-(2-hydroxyethyl)-1-piperazineethanesulfonic acid (HEPES) were purchased from Roche Molecular Biochemicals, MgCl2 and MnCl2 were purchased from Merck Eurolab, Tris(2-carboxyethyl)phosphine hydrochloride (TCEP) was purchased from Pierce, 384 Well low volume fluorescence plates was purchased from Falcon.
(§6) At first the enzyme is pre-incubated for 15 min. at 15° C. in aqueous solution with corresponding amounts of inhibitors according to this invention. Then the phosphorylation reaction is started by adding a reaction mixture, containing ATP, Peptide and PT66, and subsequent shaking. The proceeding of this reaction is immediately monitored using time resolved fluorescence spectroscopy in a suitable well plate reader.
(§7) The IC50-values can be obtained from the reaction rates by using a non-linear curve fit (XLfit software (ID Business Solution Ltd., Guilford, Surrey, UK))

[2] = molecular target: T2, Src (p60^c-src, partially purified) (Homo sapiens, UniProt P12931); experiment: SRC-Inhibitor-Assay, time-resolved fluorescence kinase assay (Src); format: biochemical; conditions: ATP 5 μM; enzyme pre-incubated with inhibitor 15 min at 15° C.
T2 construct: purchased UBI, Upstate Biotech, Inc
T2 sequence (P12931 whole entry, species assumed): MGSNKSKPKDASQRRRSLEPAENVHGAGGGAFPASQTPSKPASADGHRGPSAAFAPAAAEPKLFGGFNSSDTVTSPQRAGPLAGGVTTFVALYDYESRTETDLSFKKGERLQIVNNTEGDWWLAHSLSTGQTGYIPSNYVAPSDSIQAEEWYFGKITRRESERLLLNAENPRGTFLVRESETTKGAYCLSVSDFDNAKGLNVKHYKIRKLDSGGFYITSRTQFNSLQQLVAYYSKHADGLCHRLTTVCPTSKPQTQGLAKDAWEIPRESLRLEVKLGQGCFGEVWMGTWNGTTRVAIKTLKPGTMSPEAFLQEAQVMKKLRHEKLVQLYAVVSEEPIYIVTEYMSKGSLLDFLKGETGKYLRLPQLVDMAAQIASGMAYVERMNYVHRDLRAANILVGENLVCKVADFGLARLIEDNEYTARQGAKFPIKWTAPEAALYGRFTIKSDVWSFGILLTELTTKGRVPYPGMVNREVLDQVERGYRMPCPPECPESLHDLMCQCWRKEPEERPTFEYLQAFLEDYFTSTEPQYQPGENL
Experimental: as §1, §2, §3, §4, §5, §6, §7

| Structure (SMILES) | IC50 [1] | IC50 [2] |
| --- | --- | --- |
| CN1C(=O)N(c2cc(NC(=O)c3ccc(N4CCOCC4)cc3)ccc2Cl)Cc2cnc(N)nc21 [Example 2-7, N-[3-(7-Amino-1-methyl-2-oxo-1,4-dihydro-2H-pyrimido[4,5-d]pyrimidin-3-yl)-4-chloro-phenyl]-4-morpholin-4-yl-benzamide] | 168 nM | 73.5 nM |
| CN1C(=O)N(c2cc(NC(=O)c3ccc(-c4ccccc4)cc3)ccc2Cl)Cc2cnc(N)nc21 [Example 1, Biphenyl-4-carboxylic acid[3-(7-amino-1-methyl-2-oxo-1,4-dihydro-2H-pyrimido[4,5-d]pyrimidin-3-yl)-4-chloro-phenyl]-amide] | 50 to 150 nM | 50 to 150 nM |
| CN1C(=O)N(c2cc(NC(=O)c3ccc(-c4ccc[nH]4)cc3)ccc2Cl)Cc2cnc(N)nc21 [Example 2-24, N-[3-(7-Amino-1-methyl-2-oxo-1,4-dihydro-2H-pyrimido[4,5-d]pyrimidin-3-yl)-4-chloro-phenyl]-4-(1H-pyrrol-2-yl)-benzamide] | 50 to 150 nM | 50 to 150 nM |
| CN1C(=O)N(c2cc(NC(=O)C=Cc3ccccc3)ccc2Cl)Cc2cnc(N)nc21 [Example 2-14, N-[3-(7-Amino-1-methyl-2-oxo-1,4-dihydro-2H-pyrimido[4,5-d]pyrimidin-3-yl)-4-chloro-phenyl]-3-phenyl-acrylamide] | 38.5 nM | 41 nM |
| CN1C(=O)N(c2cc(NC(=O)c3cccc4ccccc34)ccc2Cl)Cc2cnc(N)nc21 [Example 2-15, Naphthalene-1-carboxylic acid [3-(7-amino-1-methyl-2-oxo-1,4-dihydro-2H-pyrimido[4,5-d]pyrimidin-3-yl)-4-chloro-phenyl]-amide] | 50 to 150 nM | 50 to 150 nM |
| CN1C(=O)N(c2cc(NC(=O)c3ccc(-c4ccccn4)cc3)ccc2Cl)Cc2cnc(N)nc21 [Example 2-22, N-[3-(7-Amino-1-methyl-2-oxo-1,4-dihydro-2H-pyrimido[4,5-d]pyrimidin-3-yl)-4-chloro-phenyl]-4-pyridin-2-yl-benzamide] | 50 to 150 nM | 50 to 150 nM |
| CN1C(=O)N(c2cc(NC(=O)c3cccc(-c4ccccc4)c3)ccc2Cl)Cc2cnc(N)nc21 [Example 2-3, Biphenyl-3-carboxylic acid [3-(7-amino-1-methyl-2-oxo-1,4-dihydro-2H-pyrimido[4,5-d]pyrimidin-3-yl)-4-chloro-phenyl]-amide] | 50 to 150 nM | 50 to 150 nM |
